{"source": "patent US20070208003A1", "about": "“COMPOUNDS AND METHODS FOR TREATING DYSLIPIDEMIA” (priority 2004, published 2007)", "tested_on": "transgenic mice that express both human CETP and human apolipoprotein A-1", "assay": "Assay of plasma lipids in vivo: elevation of HDL cholesterol", "settings": "single oral dose 30 mg/kg; at 8 hr; serum HDL cholesterol relative to control; transgenic mice expressing human CETP and human apolipoprotein A-1", "experimental": "Assay of Plasma Lipids In Vivo.\nActivity of compounds of this invention in vivo can be determined by the level of elevation of HDL cholesterol relative to control by a given amount of compound in a CETP-containing animal species. A strain of transgenic mice that express both human CETP and human apolipoprotein A-1 (Taconic, Germantown, N.Y.) is used to test compounds of this invention. Test compounds are administered once orally in selected aqueous or oil based vehicles. At various times after dosing, ranging from 4 h to 24 h, blood is obtained. Blood is allowed to clot and serum is obtained by centrifugation. HDL cholesterol levels in the serum is determined by HDL-C plus reagents (Roche/Hitachi, Indianapolis, Ind.) with a clinical chemistry analyzer (Roche/Hitachi, Indianapolis, Ind.). Additional serum lipids can be analyzed by enzymatic methods. Lipids in the VLDL, LDL and HDL fractions are analyzed by enzymatic methods after precipitation or size exclusion chromatography."}
{"smiles": "Cc1nc2c(cc1C(F)(F)F)N(C(=O)OC(C)C)CCCC2N(Cc1cc(C(F)(F)F)cc(C(F)(F)F)c1)c1nnn(C)n1", "note": "(racemic) [Example 14]", "values": [{"measurement": "% HDL cholesterol increase", "result": 91, "unit": "%"}]}
